Experiment [1] has as its system C2C12 cells. The experiment can be described thus: Cell viability of C2C12 cells in culture (MTT assay), alanine scanning. The experiment is classed as cell-based. Particulars: C2C12 cell cultures (FIG. 10). The method, then: This was tested with cell viability in cell cultures. […] Cell viability may be assessed with staining and cell number counts or with MTT assays. These techniques are well known in the art.
(In general: Tetrazolium dyes change colour on reduction, which living cells bring about.)

Experiment [2] deals with desiccating stress-induced dry eye. The experiment can be described thus: Corneal fluorescein staining in desiccating stress-induced dry eye (CEC) mice. It counts as in vivo, C57BL/6 mice. Particulars: therapeutic: CEC 14 days to induce dry eye, then peptide on the eyes for 5 days. The protocol: In an animal model for dry eye diseases, mice were placed in a controlled environment chamber (CEC) to induce dry eyes as previously described (Barabino et al., 2005). Mice placed in the CEC were exposed to a relative humidity (RH)<25%, temperature of 20 to 22° C., with an airflow of 15 L/min, 12 hours per day. Non-Stressed mice were kept in a normal environment (RH >50%, no air flow, temperature of 21-23° C.) for the same duration. After 14 days, non-stressed mice were treated with vehicle, while the stressed mice were treated with either a test peptide (e.g., the 29mer PDSP) or vehicle solution (Vehicle group) for 5 days. Then, the cornea was examined with fluorescein staining.
Seven to 8-week-old female C57BL/6 mice were used for these experiments. Experimental procedures were approved by the Mackay Memorial Hospital Review Board and conducted according to the ARVO Statement for the Use of Animals in Ophthalmic and Vision Research.
(§1) Dry eye was induced by placing mice in a controlled environment chamber (CEC) as previously described (Barabino et al., 2005). Briefly, mice placed in the CEC were exposed to a relative humidity (RH)<25%, temperature of 20 to 22° C., and airflow of 15 L/min, 12 hours per day. Non-stressed (NS) mice without stress-induced dry eye were kept in a normal environment (RH >50%, no air flow, temperature of 21-23° C.) for the same duration. Corneal fluorescein staining and
Animals were anesthetized by an intraperitoneal injection of a mixture of zoletil (6 mg/kg) and xylazine (3 mg/kg). Corneal epithelial injury was determined by staining with topical fluorescein (Fluor-I-Strip, Ayerst Laboratories, Philadelphia, Pa.). Corneal fluorescein staining was examined with a slit-lamp biomicroscope under cobalt blue light and photographed with a digital camera. Dye staining of the cornea was scored in a manner as follows: score 0 for no punctuate staining; score 1 when less than one third of the cornea was stained; score 2 when two thirds or less was stained; and score 3 when more than two thirds was stained (Horwath-Winter J 2013).
To determine whether PDSP have therapeutic effects in a desiccating stress (DS)-induced ocular surface defects, mice were housed at controlled environment chamber (CEC) for 14 days to create ocular surface disruption. After 14 days in CEC, we used mice with fluorescence scores that are above 2 for the first experiments (FIG. 1A). Subsequently, dry eyes were treated topically with PDSP at 25-200 μM (3 times/day) or PDSP vehicle (1% CMC in BSS) for another 5 days while maintaining the same desiccating stress protocol.
To investigate whether the PDSP can suppress DS-induced corneal epithelial disruption, we applied the 14-day desiccating stress protocol to mice, and treated these mice topically with PDSP 3 times a day.

The test system is the same in experiment [3]. The experiment can be described thus: Tear production by phenol red thread test in CEC dry eye mice. The experiment is classed as in vivo, C57BL/6 mice. Particulars: for ability to induce tear production (alanine scanning of the 29mer): CEC dry eye mice, phenol red thread method (FIG. 9). The method, then: as §1
Tear production was measured with phenol red-impregnated cotton threads (Zone-Quick; Oasis, Glendora, CA). The validity of this test in mice was performed as previously described (Dursun et al., 2002). The threads were held with jeweler forceps and placed in the lateral canthus for 60 seconds. The tear production is expressed in millimeters of thread that is wet by the tear and turned red.
To determine whether PDSP have therapeutic effects in a desiccating stress (DS)-induced ocular surface defects, mice were housed at controlled environment chamber (CEC) for 14 days to create ocular surface disruption. After 14 days in CEC, we used mice with fluorescence scores that are above 2 for the first experiments (FIG. 1A). […]

Experiment [4] shares this test system. The experiment can be described thus: Corneal fluorescein staining in desiccating stress-induced dry eye (CEC) mice. It counts as in vivo, C57BL/6 mice. To be noted: CEC 14 days, then peptide for 3 days (FIG. 11); listed as mouse PDSP.

“Also recorded” adds a separate entry of the source.

In the case of “R106A: human PDSP 29mer with alanine substitution at residue 14 (R106) (SLGAEQRTESIIHAALYYDLISSPDIHGT; UniProt P36955 93-121, looked up, variant R106A)”, in experiment [1], the “ability to sustain/enhance viabilities of the cells (alanine scanning of the 29mer)” value (“ability to sustain/enhance viabilities” below) is given as “substantially abolished”. The “corneal surface damage by fluorescein staining” value (from here on “corneal surface damage”) in experiment [2] was “substantial loss of PDSP activity”. In addition, the “ability to induce tear production (alanine scanning of the 29mer)” value (from here on “ability to induce tear production”) in experiment [3] is “substantial losses of abilities of PDSP to induce tear production”.

On to “moPDSP 29mer: corresponding mouse sequence SLGAEHRTESVIHRALYYDLITNPDIHST (SEQ ID NO:5) (listed as Mus musculus)”, for which the “corneal damage by corneal fluorescein staining, human vs mouse 29mer” value in experiment [4] is given as “capable of restore the ocular surface damages”. The “tear production (phenol red thread), human vs mouse PDSP” value in experiment [3] (CEC 14 days, then peptide for 3 days (FIG. 12), listed as mouse PDSP) is reported as “capable of restore; also recorded: improved tear productions to the same extent”.

Take “I104A: human PDSP 29mer with alanine substitution at residue 12 (I104) (SLGAEQRTESIAHRALYYDLISSPDIHGT; UniProt P36955 93-121, looked up, variant I104A)”: the “ability to sustain/enhance viabilities” value in experiment [1] is recorded as “substantially abolished”. The “corneal surface damage” value in experiment [2] is “substantial loss of PDSP activity”. Further, the “ability to induce tear production” value in experiment [3] is on record as “substantial losses of abilities of PDSP to induce tear production”.

In the case of “A96G: human PDSP 29mer with glycine substitution at residue 4 (A96) (Ac-SLGGEQRTESIIHRALYYDLISSPDIHGT-NH2; UniProt P36955 93-121, looked up, variant A96G)”, in experiment [1], the “ability to sustain/enhance viabilities” value was “substantially abolished”. Moreover, in experiment [2], the “corneal surface damage” value is “substantial loss of PDSP activity”. For the same substance, the “ability to induce tear production” value in experiment [3] was “substantial losses of abilities of PDSP to induce tear production”.

For “Q98A: human PDSP 29mer with alanine substitution at residue 6 (Q98) (SLGAEARTESIIHRALYYDLISSPDIHGT; UniProt P36955 93-121, looked up, variant Q98A)”, the “ability to sustain/enhance viabilities” value in experiment [1] was “substantially abolished”. The “corneal surface damage” value in experiment [2] is “substantial loss of PDSP activity”. Besides, the “ability to induce tear production” value in experiment [3] is reported as “substantial losses of abilities of PDSP to induce tear production”.
